The source of these data is PMC6199744, “Development of Chemical Proteomics for the Folateome and Analysis of the Kinetoplastid Folateome” (ACS Infectious Diseases, 2018).

Holding throughout (format): binding
In assay [1] the target is T1, HeLa cell extract proteins (Homo sapiens, UniProt P61106).
T1 construct: endogenous in cells; host or cells: HeLa cell extract

Assay [2] has as its target T2, HeLa cell extract proteins (Homo sapiens, UniProt O75306).
T2 construct: endogenous in cells; host or cells: HeLa cell extract

Assay [3] addresses T3, HeLa cell extract proteins (Homo sapiens, UniProt Q9UBV8).
T3 construct: endogenous in cells; host or cells: HeLa cell extract
T3 sequence (Q9UBV8 1-284): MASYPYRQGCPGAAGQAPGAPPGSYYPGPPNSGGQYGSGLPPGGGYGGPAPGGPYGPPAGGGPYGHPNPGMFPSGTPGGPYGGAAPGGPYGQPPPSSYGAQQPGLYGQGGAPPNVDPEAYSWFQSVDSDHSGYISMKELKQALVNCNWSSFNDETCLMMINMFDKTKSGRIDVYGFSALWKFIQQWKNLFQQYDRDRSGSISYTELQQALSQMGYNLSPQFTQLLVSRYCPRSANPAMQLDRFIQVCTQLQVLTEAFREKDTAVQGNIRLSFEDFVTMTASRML

In assay [4] the target is T4, HeLa cell extract proteins (Homo sapiens, UniProt P06454).
T4 construct: endogenous in cells; host or cells: HeLa cell extract
T4 sequence (P06454 1-111): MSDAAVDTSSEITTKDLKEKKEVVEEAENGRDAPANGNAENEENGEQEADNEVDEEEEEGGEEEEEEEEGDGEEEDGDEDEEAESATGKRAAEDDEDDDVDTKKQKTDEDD

In assay [5] the target is T5, HeLa cell extract proteins (Homo sapiens, UniProt P09497).
T5 construct: endogenous in cells; host or cells: HeLa cell extract
T5 sequence (P09497 1-229): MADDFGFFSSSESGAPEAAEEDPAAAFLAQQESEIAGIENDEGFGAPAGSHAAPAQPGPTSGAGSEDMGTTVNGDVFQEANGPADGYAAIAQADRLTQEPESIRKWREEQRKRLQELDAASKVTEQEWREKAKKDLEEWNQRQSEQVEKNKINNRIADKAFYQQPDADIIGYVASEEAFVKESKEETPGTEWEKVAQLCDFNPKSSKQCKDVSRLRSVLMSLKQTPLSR

Assay [6] addresses T6, HeLa cell extract proteins (Homo sapiens, UniProt P61981).
T6 construct: endogenous in cells; host or cells: HeLa cell extract
T6 sequence (P61981 1-247): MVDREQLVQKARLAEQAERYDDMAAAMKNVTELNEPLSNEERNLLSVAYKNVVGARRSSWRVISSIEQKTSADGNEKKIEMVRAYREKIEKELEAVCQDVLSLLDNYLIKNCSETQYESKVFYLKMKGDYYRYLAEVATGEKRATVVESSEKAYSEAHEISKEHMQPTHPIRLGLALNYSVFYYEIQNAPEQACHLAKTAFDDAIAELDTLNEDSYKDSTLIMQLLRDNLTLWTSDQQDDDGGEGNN

Assay [7] addresses T7, HeLa cell extract proteins (Homo sapiens, UniProt O60884).
T7 construct: endogenous in cells; host or cells: HeLa cell extract

The target in assay [8] is T8, HeLa cell extract proteins (Homo sapiens, UniProt O95382).
T8 construct: endogenous in cells; host or cells: HeLa cell extract
T8 sequence (O95382 1-1288): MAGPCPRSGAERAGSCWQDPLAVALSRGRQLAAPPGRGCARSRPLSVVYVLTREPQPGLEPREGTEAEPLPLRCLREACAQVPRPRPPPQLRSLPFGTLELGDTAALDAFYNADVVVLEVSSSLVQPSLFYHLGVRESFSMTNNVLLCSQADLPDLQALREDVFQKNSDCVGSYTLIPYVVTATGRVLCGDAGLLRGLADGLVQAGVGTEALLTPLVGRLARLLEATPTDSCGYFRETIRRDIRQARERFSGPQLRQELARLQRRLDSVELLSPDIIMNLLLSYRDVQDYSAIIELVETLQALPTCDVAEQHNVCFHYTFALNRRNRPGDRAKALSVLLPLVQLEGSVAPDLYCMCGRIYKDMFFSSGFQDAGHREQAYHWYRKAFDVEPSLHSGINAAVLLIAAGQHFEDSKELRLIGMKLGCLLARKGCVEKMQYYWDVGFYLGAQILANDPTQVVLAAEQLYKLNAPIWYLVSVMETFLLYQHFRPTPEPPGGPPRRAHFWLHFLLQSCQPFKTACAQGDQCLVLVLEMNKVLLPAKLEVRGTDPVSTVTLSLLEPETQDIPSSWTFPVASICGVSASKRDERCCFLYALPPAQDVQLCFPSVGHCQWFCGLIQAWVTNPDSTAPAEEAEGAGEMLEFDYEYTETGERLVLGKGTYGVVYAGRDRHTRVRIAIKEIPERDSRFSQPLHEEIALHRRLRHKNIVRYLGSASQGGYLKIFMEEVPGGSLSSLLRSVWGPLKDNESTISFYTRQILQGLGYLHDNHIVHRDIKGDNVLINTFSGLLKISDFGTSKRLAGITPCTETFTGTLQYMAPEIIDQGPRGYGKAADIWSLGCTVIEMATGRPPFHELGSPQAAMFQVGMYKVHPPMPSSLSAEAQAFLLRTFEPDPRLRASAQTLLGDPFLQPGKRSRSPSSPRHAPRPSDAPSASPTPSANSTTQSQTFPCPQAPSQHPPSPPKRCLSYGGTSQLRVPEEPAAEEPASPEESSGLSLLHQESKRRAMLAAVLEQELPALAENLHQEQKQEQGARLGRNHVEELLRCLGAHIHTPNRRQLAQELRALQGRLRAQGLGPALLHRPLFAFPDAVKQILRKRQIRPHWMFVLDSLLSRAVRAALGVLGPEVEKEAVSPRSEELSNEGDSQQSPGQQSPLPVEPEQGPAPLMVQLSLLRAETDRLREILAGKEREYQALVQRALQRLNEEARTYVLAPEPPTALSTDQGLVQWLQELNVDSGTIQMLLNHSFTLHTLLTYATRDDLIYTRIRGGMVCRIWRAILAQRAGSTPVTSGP

The target of assay [9] is T9, HeLa cell extract proteins (Homo sapiens, UniProt P14625).
T9 construct: endogenous in cells; host or cells: HeLa cell extract
T9 sequence (P14625 22-803): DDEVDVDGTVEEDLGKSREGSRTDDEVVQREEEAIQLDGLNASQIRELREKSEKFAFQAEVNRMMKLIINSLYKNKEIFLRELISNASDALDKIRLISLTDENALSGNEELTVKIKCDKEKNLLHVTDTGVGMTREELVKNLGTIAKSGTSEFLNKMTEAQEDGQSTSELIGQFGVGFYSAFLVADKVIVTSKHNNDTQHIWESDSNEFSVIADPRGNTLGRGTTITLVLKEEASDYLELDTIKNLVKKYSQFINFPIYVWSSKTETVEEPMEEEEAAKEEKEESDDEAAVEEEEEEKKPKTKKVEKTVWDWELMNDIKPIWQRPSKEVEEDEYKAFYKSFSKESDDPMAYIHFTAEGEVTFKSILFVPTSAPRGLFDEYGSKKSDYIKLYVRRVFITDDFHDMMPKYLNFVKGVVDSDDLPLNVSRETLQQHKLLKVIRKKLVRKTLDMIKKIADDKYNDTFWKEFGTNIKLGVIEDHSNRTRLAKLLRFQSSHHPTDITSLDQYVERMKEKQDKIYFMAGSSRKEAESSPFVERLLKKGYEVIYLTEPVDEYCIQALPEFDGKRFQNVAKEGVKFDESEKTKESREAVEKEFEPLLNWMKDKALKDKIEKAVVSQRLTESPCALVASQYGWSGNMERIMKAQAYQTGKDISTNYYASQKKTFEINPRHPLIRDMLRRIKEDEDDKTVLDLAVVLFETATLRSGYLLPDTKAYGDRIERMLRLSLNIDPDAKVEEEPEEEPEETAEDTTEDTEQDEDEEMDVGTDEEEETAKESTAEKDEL

The mark [10] stands for this setting: HeLa, protein PTMA (15 KDA PROTEIN.).
[11] abbreviates: HeLa, protein YWHAG (14-3-3 PROTEIN GAMMA.).

SMILES strings stand for the structures. Where two headings read alike, the source gives them in different places.

T1 sequence (P61106 whole entry): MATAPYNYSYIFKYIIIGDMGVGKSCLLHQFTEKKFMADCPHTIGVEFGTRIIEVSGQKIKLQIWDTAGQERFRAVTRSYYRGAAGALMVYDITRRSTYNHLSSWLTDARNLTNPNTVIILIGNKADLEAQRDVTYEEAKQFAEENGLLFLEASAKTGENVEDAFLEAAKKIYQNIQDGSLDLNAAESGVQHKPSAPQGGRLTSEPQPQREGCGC
T7 sequence (O60884 whole entry): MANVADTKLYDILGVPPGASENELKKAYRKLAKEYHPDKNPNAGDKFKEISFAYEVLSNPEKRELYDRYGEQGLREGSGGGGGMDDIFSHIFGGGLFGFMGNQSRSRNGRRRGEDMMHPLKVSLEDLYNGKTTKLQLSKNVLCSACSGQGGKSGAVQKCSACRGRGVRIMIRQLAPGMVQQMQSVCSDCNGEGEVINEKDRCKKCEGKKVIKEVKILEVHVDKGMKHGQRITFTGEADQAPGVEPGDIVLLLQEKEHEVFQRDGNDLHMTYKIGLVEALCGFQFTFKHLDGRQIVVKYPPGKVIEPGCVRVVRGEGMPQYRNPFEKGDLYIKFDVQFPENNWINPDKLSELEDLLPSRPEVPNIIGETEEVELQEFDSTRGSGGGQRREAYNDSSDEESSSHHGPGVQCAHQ
T2 sequence (O75306 34-463): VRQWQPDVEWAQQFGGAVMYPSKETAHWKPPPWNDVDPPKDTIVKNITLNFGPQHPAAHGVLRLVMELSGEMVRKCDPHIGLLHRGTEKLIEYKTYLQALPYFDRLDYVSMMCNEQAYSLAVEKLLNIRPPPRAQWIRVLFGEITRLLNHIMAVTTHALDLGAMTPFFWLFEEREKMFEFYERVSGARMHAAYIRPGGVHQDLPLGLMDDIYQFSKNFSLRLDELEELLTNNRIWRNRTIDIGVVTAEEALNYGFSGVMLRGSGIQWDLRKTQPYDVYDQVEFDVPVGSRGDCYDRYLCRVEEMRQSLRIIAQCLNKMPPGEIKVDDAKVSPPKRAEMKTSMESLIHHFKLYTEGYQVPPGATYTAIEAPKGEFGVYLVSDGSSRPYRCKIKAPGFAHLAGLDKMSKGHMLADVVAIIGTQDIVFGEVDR

For `Nc1nc2c(c(=O)[nH]1)N(C=O)C(CNc1ccc(C(=O)N[C@@H](CCC(=O)O)C(=O)O)cc1)CN2` (stereo partly drawn) [LEU, leucovorin], the “fold changes relative to vehicle control” value in assay [1] (HeLa, protein RAB14) is reported as 0.95; in [2] (protein NDUFS2, HeLa), 0.86; in assay [3] (HeLa, captured protein PEF1), 0.95; in [4] (protein PTMA, HeLa), 0.82; in [5] (HeLa, captured protein CLTB), 0.99; in assay [6] (protein YWHAG, HeLa) it was 1.02. The “fold changes relative to vehicle control” value in assay [7] (protein DNAJA2, HeLa) is 0.86; in assay [8] (HeLa, protein MAP3K6) it was 0.99; in assay [9] (HeLa, protein HSP90B1) it was 1.04.

Consider `Nc1nc2[nH]cc(CCc3ccc(C(=O)N[C@@H](CCC(=O)O)C(=O)O)cc3)c2c(=O)[nH]1` [PTX, pemetrexed], for which the “fold changes relative to vehicle control” value amounted to 0.95 in assay [1]; 0.92 in assay [2]; 0.99 in assay [3]; 0.97 in [4]; 1.2 in assay [5]; 1.09 in assay [6]. The “fold changes relative to vehicle control” value is reported as 0.9 in [7], 1.16 in assay [8] and 1.14 in [9].

With `CCCCCCOc1ccc(Cc2cnc(N)nc2N)cc1` [compound 1], the “fold changes relative to vehicle control” value in assay [1] (captured protein RAB14, HeLa) came to 0.89; in assay [2] (HeLa, protein NDUFS2), 1.15; in assay [3] (HeLa, protein PEF1), 0.88; in assay [4] (setting [10]), 1.18 fold; in assay [5] (HeLa, protein CLTB) it was 0.82; in [6] (setting [11]) it was 1.45 fold. Moreover, the “fold changes relative to vehicle control” value stood at 0.92 in assay [7] (protein DNAJA2, HeLa); 0.99 in assay [8] (HeLa, protein MAP3K6); 1.35 fold in [9] (HeLa, protein HSP90B1 (E[…].)).

As to `CCCCCCOc1cccc(Cc2cnc(N)nc2N)c1` [compound 2], the “fold changes relative to vehicle control” value is reported as 1.22 in assay [1] (captured protein RAB14, HeLa); 1.12 in [2] (HeLa, protein NDUFS2); 0.76 in assay [3] (HeLa, protein PEF1); 3.52 fold in assay [4] (setting [10]); 1.18 in [5] (HeLa, protein CLTB); 2.09 fold in assay [6] (setting [11]). The “fold changes relative to vehicle control” value was found to be 1.14 in assay [7] (protein DNAJA2, HeLa); 0.97 in assay [8] (HeLa, protein MAP3K6); 2.51 fold in assay [9] (HeLa, protein HSP90B1 (ENDOPLASMIN PRECURSOR.)).

Regarding `Nc1nc2cccc(-c3ccccc3)c2n1Cc1ccc(Cl)c(Cl)c1` [compound 3], the “fold changes relative to vehicle control” value was 0.82 in assay [1] (captured protein RAB14, HeLa); 1.3 in [2] (HeLa, protein NDUFS2); 1.06 in assay [3] (HeLa, protein PEF1); 0.68 fold in assay [4] (setting [10]); 0.94 in assay [5] (HeLa, protein CLTB); 0.97 fold in assay [6] (setting [11]). For the same compound, the “fold changes relative to vehicle control” value is listed as 0.95 in [7] (protein DNAJA2, HeLa); 0.97 in assay [8] (HeLa, protein MAP3K6); 0.91 fold in assay [9] (HeLa, protein HSP90B1 (E[…].)).

On to `NCCOCCOCC(=O)Nc1nc2ncc(CNc3ccc(C(=O)NC(CCC(=O)O)C(=O)O)cc3)nc2c(=O)[nH]1` (stereo not drawn) [compound 6], for which the “fold changes relative to vehicle control” value in [1] (HeLa, protein RAB14) is listed as 0.97; in assay [2] (protein NDUFS2, HeLa) it was 1.12; in assay [3] (HeLa, captured protein PEF1), 0.87; in assay [4] (protein PTMA, HeLa), 0.89; in [5] (HeLa, captured protein CLTB) it was 1.23; in assay [6] (protein YWHAG, HeLa), 1.26. Also, the “fold changes relative to vehicle control” value in [7] (protein DNAJA2, HeLa) is on record as 1.01; in assay [8] (HeLa, protein MAP3K6) it was 1.19; in [9] (HeLa, protein HSP90B1), 1.18.

In the case of `NCCCNc1ccc(C(=O)NC(CCC(=O)O)C(=O)O)cc1` (stereo not drawn) [compound 7], the “fold changes relative to vehicle control” value is given as 0.86 in assay [1] (HeLa, protein RAB14); 1.13 in [2] (protein NDUFS2, HeLa); 0.99 in [3] (HeLa, captured protein PEF1); 0.72 in assay [4] (protein PTMA, HeLa); 1.14 in assay [5] (HeLa, captured protein CLTB); 0.91 in assay [6] (protein YWHAG, HeLa). The “fold changes relative to vehicle control” value in assay [7] (protein DNAJA2, HeLa) is reported as 0.91; in assay [8] (HeLa, protein MAP3K6), 1.16; in assay [9] (HeLa, protein HSP90B1), 0.89.
